# Experimental data as given in US20210137964A1, “GLYCAN COMPOSITIONS AND METHODS OF USE” (KALEIDO BIOSCIENCES, INC., priority 2016, published 2021).
# Key:
# Format in all cases: cell-based
# Conditions in all cases: ex vivo 1% w/v fecal slurry from 12 subjects, glycan 0.5% w/v, 37° C., 18 hours, anaerobic
# [1] = tested on: Firmicutes, Proteobacteria, and/or Actinobacteria; test: Ex vivo fecal slurry assay, 16S rRNA sequencing (Example 11)
# Source text: (§1) An ex vivo assay was designed to determine if glycans can be used to modulate a complex community of microorganisms and if the glycans produced consistent effects across communities obtained from multiple (twelve) subjects. Fecal samples and slurries were handled in an anaerobic chamber (AS-580, Anaerobe Systems) featuring a palladium catalyst. Glycans ara100, gal100, glu60man40, glu100, glu50gal50, gal33man33ara33, man75gal25, glu33gal33man34, glu33gal33Ara33, man100, man52glu29gal19 and commercially available glycans lactulose (Alfa Aesar) and FOS (Nutraflora FOS; NOW Foods, Bloomingdale Ill.) were included in the study. The fecal sample donations obtained from 12 subjects were stored at −80° C. To prepare working stocks the fecal samples were transferred into the anaerobic chamber and allowed to thaw.
# [2] = tested on: Actinobacteria and/or Coriobacteriaceae/Gordonibacter; test: Ex vivo fecal slurry assay, 16S rRNA sequencing (Example 13)
# Source text: as §1
# [3] = tested on: Enterococcaceae/Enterococcus and/or Bifidobacteriaceae/Bifidobacterium; test: Ex vivo fecal slurry assay, 16S rRNA sequencing (Example 15)
# Source text: as §1
# [4] = tested on: Enterobacteriaceae/Escherichia/Shigella microbes; test: Ex vivo fecal slurry assay, 16S rRNA sequencing (Example 17)
# Source text: as §1
# [5] = tested on: Enterococcaceae/Enterococcus and/or Enterobacteriaceae/Escherichia/Shigella microbes; test: Ex vivo fecal slurry assay, 16S rRNA sequencing (Example 18)
# Source text: as §1
# [6] = tested on: Enterobacteriales/Enterobacteriaceae microbes; test: Ex vivo fecal slurry assay, 16S rRNA sequencing (Example 19)
# Source text: as §1
# [7] = tested on: Ruminococcaceae/Ruminococcus microbes; test: Ex vivo fecal slurry assay, 16S rRNA sequencing (Example 21)
# Source text: as §1
structure (smiles),measurement,setting,value
OC[C@H]1O[C@@H](O[C@@H]2[C@@H](CO)OC(O)(CO)[C@H]2O)[C@H](O)[C@@H](O)[C@H]1O (mixture of isomers) [lactulose],"levels of Firmicutes, Proteobacteria, and/or Actinobacteria",[1],decrease
same,levels of Actinobacteria and/or Coriobacteriaceae/Gordonibacter,[2],decrease
same,levels Enterococcaceae/Enterococcus and/or Bifidobacteriaceae/Bifidobacterium,[3],increase
same,levels of Enterobacteriaceae/Escherichia/Shigella microbes,[4],decrease
same,levels of Enterococcaceae/Enterococcus and/or Enterobacteriaceae/Escherichia/Shigella microbes,[5],decrease
same,levels of Enterobacteriales/Enterobacteriaceae microbes,[6],decrease
same,levels of Ruminococcaceae/Ruminococcus microbes,[7],decrease
